Assay results published in publication PMC3973943, “Microwave-assisted synthesis of some hybrid molecules containing penicillanic acid or cephalosporanic acid moieties and investigation of their biological activities” (Medicinal Chemistry Research, 2013).

Target: Jack bean urease (Canavalia ensiformis, UniProt P07374)
Assay: indophenol ammonia assay, […] nm
Format: biochemical

Jack bean urease, sequence (P07374 whole entry): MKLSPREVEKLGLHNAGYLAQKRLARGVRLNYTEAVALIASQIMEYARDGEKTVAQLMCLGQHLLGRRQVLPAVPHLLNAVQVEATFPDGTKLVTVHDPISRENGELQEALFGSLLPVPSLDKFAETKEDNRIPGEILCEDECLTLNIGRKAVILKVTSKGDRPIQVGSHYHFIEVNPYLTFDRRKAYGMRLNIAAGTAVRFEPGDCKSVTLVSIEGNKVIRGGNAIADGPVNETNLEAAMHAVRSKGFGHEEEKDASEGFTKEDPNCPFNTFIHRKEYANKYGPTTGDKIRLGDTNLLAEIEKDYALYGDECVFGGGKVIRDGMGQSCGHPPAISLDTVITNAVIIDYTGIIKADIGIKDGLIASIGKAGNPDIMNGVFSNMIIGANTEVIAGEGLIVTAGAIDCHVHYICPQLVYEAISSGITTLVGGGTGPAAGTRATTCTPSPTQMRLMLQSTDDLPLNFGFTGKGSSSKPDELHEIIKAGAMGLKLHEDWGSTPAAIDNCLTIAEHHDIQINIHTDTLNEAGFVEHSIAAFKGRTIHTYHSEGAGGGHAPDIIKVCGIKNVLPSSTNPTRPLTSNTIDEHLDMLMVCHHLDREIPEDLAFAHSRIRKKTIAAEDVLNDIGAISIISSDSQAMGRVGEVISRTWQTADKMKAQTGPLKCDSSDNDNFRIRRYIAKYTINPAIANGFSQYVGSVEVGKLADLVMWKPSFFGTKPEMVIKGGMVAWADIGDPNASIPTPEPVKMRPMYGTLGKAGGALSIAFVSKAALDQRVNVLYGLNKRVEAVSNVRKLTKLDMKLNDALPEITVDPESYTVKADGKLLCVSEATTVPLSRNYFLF

Row | SMILES | IC50 [µM]
1 | NC(N)=S [Thiourea, reference compound] | 717
2 | CCOC(=O)N1CCN(c2ccc(NCc3nn(CN[C@@H]4C(=O)N5C(C(=O)O)=C(COC(C)=O)CS[C@H]45)c(=S)n3-c3ccc(F)cc3)cc2F)CC1 [compound 15, ({[(6R,7R)-3-[(Acetyloxy)methyl]-7-({[3-[({4-[4-(ethoxycarbonyl)piperazin-1-yl]-3-fluorophenyl}amino)methyl]-4-(4-fluorophenyl)-5-thioxo-4,5-dihydro-1H-1,2,4-triazol-1-yl]methyl}amino)-8-oxo-5-thia-1-azabicyclo[4.2.0]oct-2-en-2-yl]carbonyl}oxy)triethyl ammonium] | 6.15
3 | CCOC(=O)N1CCN(c2ccc(NCc3nn(CN[C@@H]4C(=O)N5[C@@H]4SC(C)(C)[C@@H]5C(=O)O)c(=S)n3-c3ccccc3)cc2F)CC1 [compound 17, [({(5R,6R)-6-[({3-[({4-[4-(Ethoxycarbonyl)piperazin-1-yl]-3-fluorophenyl}amino)methyl]-4-phenyl-5-thioxo-4,5-dihydro-1H-1,2,4-triazol-1-yl}methyl)amino]-3,3-dimethyl-7-oxo-4-thia-1-azabicyclo[3.2.0]hept-2-yl}carbonyl)oxy](triethyl)ammonium] | 66.3
